Legend:
Test in all cases: relative viability (nuclei count vs DMSO), 5 days (fraction); higher = more cells survive
LK-2 = system: LK-2
Summary of the method: (§1)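 Relative viability is defined as nuclei in treated wells over nuclei in vehicle wells. Duplicate plates were run and medians reported. Lung cancer cell lines in 1536-well plates were dosed by pin tool one day after seeding, with one drug or with a fixed anchor-drug dose plus five library-drug doses (not always all listed) in √10 steps, and nuclei were counted after 5 days.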

HARA = system: HARA
Summary of the method: as §1

SK-LU-1 = system: SK-LU-1
Summary of the method: as §1

UMC-11 = system: UMC-11
Summary of the method: as §1

NCI-H2009 = system: NCI-H2009
Summary of the method: as §1

NCI-H23 = system: NCI-H23
Summary of the method: as §1

HCC-78 = system: HCC-78
Summary of the method: as §1

NCI-H1734 = system: NCI-H1734
Summary of the method: as §1

ABC-1 = system: ABC-1
Summary of the method: as §1

NCI-H838 = system: NCI-H838
Summary of the method: as §1

ChaGo-K-1 = system: ChaGo-K-1
Summary of the method: as §1

LC-2-ad = system: LC-2-ad
Summary of the method: as §1

A-427 = system: A-427
Summary of the method: as §1

HCC-366 = system: HCC-366
Summary of the method: as §1

HCC-15 = system: HCC-15
Summary of the method: as §1

COR-L23 = system: COR-L23
Summary of the method: as §1

NCI-H1993 = system: NCI-H1993
Summary of the method: as §1

NCI-H2405 = system: NCI-H2405
Summary of the method: as §1

NCI-H1650 = system: NCI-H1650
Summary of the method: as §1

NCI-H1944 = system: NCI-H1944
Summary of the method: as §1

NCI-H2023 = system: NCI-H2023
Summary of the method: as §1

NCI-H1793 = system: NCI-H1793
Summary of the method: as §1

EMC-BAC-2 = system: EMC-BAC-2
Summary of the method: as §1

Clc1ccc(Nc2nnc(Cc3ccncc3)c3ccccc23)cc1 [Vatalanib] + Nc1ncn([C@H]2C[C@H](O)[C@@H](CO)O2)c(=O)n1 [Decitabine] (partner 2 µM)
relative viability (LK-2; first compound 0.04 µM): 0.242
relative viability (LK-2; first compound 0.1265 µM): 0.25
relative viability (LK-2; first compound 0.4 µM): 0.297
relative viability (LK-2; first compound 1.265 µM): 0.266
relative viability (LK-2; first compound 4 µM): 0.319
relative viability (HARA; first compound 0.04 µM): 0.623
relative viability (HARA; first compound 0.1265 µM): 0.446
relative viability (HARA; first compound 0.4 µM): 0.463
relative viability (HARA; first compound 1.265 µM): 0.526
relative viability (HARA; first compound 4 µM): 0.521
relative viability (SK-LU-1; first compound 0.04 µM): 0.614
relative viability (SK-LU-1; first compound 0.1265 µM): 0.584
relative viability (SK-LU-1; first compound 0.4 µM): 0.668
relative viability (SK-LU-1; first compound 1.265 µM): 0.668
relative viability (SK-LU-1; first compound 4 µM): 0.52
relative viability (UMC-11; first compound 0.04 µM): 1.08
relative viability (UMC-11; first compound 0.1265 µM): 0.624
relative viability (UMC-11; first compound 0.4 µM): 0.462
relative viability (UMC-11; first compound 1.265 µM): 0.563
relative viability (UMC-11; first compound 4 µM): 0.619
relative viability (NCI-H2009; first compound 0.04 µM): 0.378
relative viability (NCI-H2009; first compound 0.1265 µM): 0.334
relative viability (NCI-H2009; first compound 0.4 µM): 0.343
relative viability (NCI-H2009; first compound 1.265 µM): 0.404
relative viability (NCI-H2009; first compound 4 µM): 0.396
relative viability (NCI-H23; first compound 0.04 µM): 0.355
relative viability (NCI-H23; first compound 0.1265 µM): 0.324
relative viability (NCI-H23; first compound 0.4 µM): 0.314
relative viability (NCI-H23; first compound 1.265 µM): 0.291
relative viability (NCI-H23; first compound 4 µM): 0.348
relative viability (HCC-78; first compound 0.04 µM): 0.744
relative viability (HCC-78; first compound 0.1265 µM): 0.723
relative viability (HCC-78; first compound 0.4 µM): 0.773
relative viability (HCC-78; first compound 1.265 µM): 0.719
relative viability (HCC-78; first compound 4 µM): 0.684
relative viability (NCI-H1734; first compound 0.04 µM): 0.575
relative viability (NCI-H1734; first compound 0.1265 µM): 0.51
relative viability (NCI-H1734; first compound 0.4 µM): 0.592
relative viability (NCI-H1734; first compound 1.265 µM): 0.477
relative viability (NCI-H1734; first compound 4 µM): 0.518
relative viability (ABC-1; first compound 0.04 µM): 1.02
relative viability (ABC-1; first compound 0.1265 µM): 0.79
relative viability (ABC-1; first compound 0.4 µM): 1.17
relative viability (ABC-1; first compound 4 µM): 1.22
relative viability (NCI-H838; first compound 0.04 µM): 0.435
relative viability (NCI-H838; first compound 0.1265 µM): 0.467
relative viability (NCI-H838; first compound 0.4 µM): 0.441
relative viability (NCI-H838; first compound 1.265 µM): 0.483
relative viability (NCI-H838; first compound 4 µM): 0.448
relative viability (ChaGo-K-1; first compound 0.04 µM): 0.494
relative viability (ChaGo-K-1; first compound 0.1265 µM): 0.52
relative viability (ChaGo-K-1; first compound 0.4 µM): 0.533
relative viability (ChaGo-K-1; first compound 1.265 µM): 0.522
relative viability (ChaGo-K-1; first compound 4 µM): 0.527
relative viability (LC-2-ad; first compound 0.04 µM): 0.803
relative viability (LC-2-ad; first compound 0.1265 µM): 0.753
relative viability (LC-2-ad; first compound 0.4 µM): 0.768
relative viability (LC-2-ad; first compound 1.265 µM): 0.776
relative viability (LC-2-ad; first compound 4 µM): 0.861
relative viability (A-427; first compound 0.04 µM): 0.6
relative viability (A-427; first compound 0.1265 µM): 0.544
relative viability (A-427; first compound 0.4 µM): 0.601
relative viability (A-427; first compound 4 µM): 0.535
relative viability (HCC-366; first compound 0.04 µM): 0.328
relative viability (HCC-366; first compound 0.1265 µM): 0.271
relative viability (HCC-366; first compound 0.4 µM): 0.395
relative viability (HCC-366; first compound 1.265 µM): 0.312
relative viability (HCC-366; first compound 4 µM): 0.348
relative viability (HCC-15; first compound 0.04 µM): 0.607
relative viability (HCC-15; first compound 0.1265 µM): 0.689
relative viability (HCC-15; first compound 0.4 µM): 0.716
relative viability (HCC-15; first compound 1.265 µM): 0.627
relative viability (HCC-15; first compound 4 µM): 0.665
relative viability (COR-L23; first compound 0.04 µM): 0.503
relative viability (COR-L23; first compound 0.1265 µM): 0.414
relative viability (COR-L23; first compound 0.4 µM): 0.565
relative viability (COR-L23; first compound 1.265 µM): 0.441
relative viability (COR-L23; first compound 4 µM): 0.404
relative viability (NCI-H1993; first compound 0.04 µM): 0.57
relative viability (NCI-H1993; first compound 0.1265 µM): 0.607
relative viability (NCI-H1993; first compound 0.4 µM): 0.541
relative viability (NCI-H1993; first compound 1.265 µM): 0.488
relative viability (NCI-H1993; first compound 4 µM): 0.495
relative viability (NCI-H2405; first compound 0.04 µM): 0.725
relative viability (NCI-H2405; first compound 0.1265 µM): 0.744
relative viability (NCI-H2405; first compound 0.4 µM): 0.866
relative viability (NCI-H2405; first compound 4 µM): 0.732
relative viability (NCI-H1650; first compound 0.04 µM): 0.361
relative viability (NCI-H1650; first compound 0.1265 µM): 0.414
relative viability (NCI-H1650; first compound 0.4 µM): 0.388
relative viability (NCI-H1650; first compound 1.265 µM): 0.373
relative viability (NCI-H1650; first compound 4 µM): 0.424
relative viability (NCI-H1944; first compound 0.04 µM): 0.427
relative viability (NCI-H1944; first compound 0.1265 µM): 0.393
relative viability (NCI-H1944; first compound 0.4 µM): 0.476
relative viability (NCI-H1944; first compound 1.265 µM): 0.398
relative viability (NCI-H1944; first compound 4 µM): 0.419
relative viability (NCI-H2023; first compound 0.04 µM): 0.22
relative viability (NCI-H2023; first compound 0.1265 µM): 0.205
relative viability (NCI-H2023; first compound 0.4 µM): 0.231
relative viability (NCI-H2023; first compound 1.265 µM): 0.221
relative viability (NCI-H2023; first compound 4 µM): 0.219
relative viability (NCI-H1793; first compound 0.04 µM): 0.374
relative viability (NCI-H1793; first compound 0.1265 µM): 0.463
relative viability (NCI-H1793; first compound 0.4 µM): 0.599
relative viability (NCI-H1793; first compound 1.265 µM): 0.499
relative viability (NCI-H1793; first compound 4 µM): 0.463
relative viability (EMC-BAC-2; first compound 0.04 µM): 0.984
relative viability (EMC-BAC-2; first compound 0.1265 µM): 0.952
relative viability (EMC-BAC-2; first compound 0.4 µM): 0.983
relative viability (EMC-BAC-2; first compound 4 µM): 0.956

— the supplement of paper PMC10307832
